In BindingDB's records for doi:10.1016/j.bmc.2013.04.067 (Chinese Academy of Sciences, 2013):

Assay: Inhibition of p-gp in human KB/VCR cells assessed as potentiation of 100 nM docetaxel-induced cytotoxicity after 72 hrs by MTT assay

**Q.** For `CC1(C)[C@@H](O)CC[C@]2(C)[C@H]3C[C@@H](O)[C@@H]4[C@@H]([C@@](C)(O)CCCNCCc5ccccc5)CC[C@@]4(C)[C@]3(C)CC[C@@H]12`, which EC50 is on record?
**A.** Its EC50 is 1310 nM.

**Q.** For `CC1(C)[C@@H](O)CC[C@]2(C)[C@H]3C[C@@H](O)[C@@H]4[C@@H]([C@@](C)(O)CCCNCc5ccccc5)CC[C@@]4(C)[C@]3(C)CC[C@@H]12`, which EC50 is on record?
**A.** Its EC50 is 1370 nM.
